Data on 14 molecules can be found in ChEMBL document CHEMBL4184187, “Current knowledge on the nucleotide agonists for the P2Y2 receptor” (Bioorg Med Chem, 2018).

Assay [1] addresses T1, P2Y purinoceptor 2 (Homo sapiens, UniProt P41231). Briefly: Agonist activity at human P2Y2 receptor expressed in 1321N1 cells assessed as [3H]-inositol phosphate accumulation measured after 90 mins by anion exchange chromatographic method. It counts as functional, cell-based.
Assay [2] concerns the target T1, P2Y purinoceptor 2. Briefly: Agonist activity at P2Y2 receptor (unknown origin). It counts as functional.
The target in the next assay is P2Y purinoceptor 1 (Homo sapiens, UniProt P47900). Briefly: Antagonist activity at P2Y1 receptor (unknown origin). It counts as functional.
Assay [3] has as its target T1, P2Y purinoceptor 2. Briefly: Agonist activity at P2Y2 receptor in BEA cells (unknown origin). It counts as functional, cell-based.
In assay [4] the target is T1, P2Y purinoceptor 2. Briefly: Agonist activity at P2Y2 receptor in human CF/T43 cells. It counts as functional, cell-based.
Assay [5] addresses T1, P2Y purinoceptor 2. The assay can be described thus: Agonist activity at P2Y2 receptor in NG108-15 cells (unknown origin). It counts as functional, cell-based.

T1 sequence (P41231 whole entry): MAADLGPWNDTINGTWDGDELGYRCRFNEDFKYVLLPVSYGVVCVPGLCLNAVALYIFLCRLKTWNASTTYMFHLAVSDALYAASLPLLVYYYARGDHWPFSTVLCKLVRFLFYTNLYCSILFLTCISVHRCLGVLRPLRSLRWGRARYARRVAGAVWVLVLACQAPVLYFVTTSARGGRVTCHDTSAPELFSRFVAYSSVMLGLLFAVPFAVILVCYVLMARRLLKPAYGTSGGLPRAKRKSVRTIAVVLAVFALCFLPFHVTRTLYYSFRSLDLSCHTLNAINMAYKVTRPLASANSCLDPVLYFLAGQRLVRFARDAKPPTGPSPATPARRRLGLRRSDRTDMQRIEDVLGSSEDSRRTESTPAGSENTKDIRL
Sequence of P2Y purinoceptor 1 (P47900 whole entry): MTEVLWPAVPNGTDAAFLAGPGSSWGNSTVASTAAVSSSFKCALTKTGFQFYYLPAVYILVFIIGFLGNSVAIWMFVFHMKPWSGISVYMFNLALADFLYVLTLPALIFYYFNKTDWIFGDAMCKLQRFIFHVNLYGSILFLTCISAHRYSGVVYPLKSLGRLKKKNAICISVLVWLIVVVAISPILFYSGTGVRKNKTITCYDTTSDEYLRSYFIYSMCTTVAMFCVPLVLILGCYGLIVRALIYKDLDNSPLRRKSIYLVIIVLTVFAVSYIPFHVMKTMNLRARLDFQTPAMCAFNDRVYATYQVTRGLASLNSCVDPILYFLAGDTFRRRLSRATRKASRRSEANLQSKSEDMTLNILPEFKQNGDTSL

Turning to `O=c1[nH]c(=S)ccn1[C@@H]1O[C@H](COP(=O)(O)OP(=O)(O)OP(=O)(O)O)[C@@H](O)[C@H]1O`, the EC50 – broadly, the concentration needed to bring the measured effect to its halfway point – at P2Y purinoceptor 2 [1] was determined as 710 nM. Take `O=c1[nH]c(=O)n([C@@H]2O[C@H](COP(=O)(O)OP(=O)(O)OP(=O)(O)O)[C@@H](O)[C@H]2O)cc1Br`: on P2Y purinoceptor 2 [2], the EC50 was 220 nM.

As to `O=c1nc(N2CCOCC2)ccn1[C@@H]1O[C@H](COP(=O)(O)OP(=O)(O)OP(=O)(O)O)[C@@H](O)[C@H]1O`, the EC50 on P2Y purinoceptor 2 [1] was 10200 nM. Same read-out and setting: for `C#CCNC(=O)COc1ccc(CCCO/N=c2\ccn([C@@H]3O[C@H](COP(=O)(O)OP(=O)(O)OP(=O)(O)O)[C@@H](O)[C@H]3O)c(=O)[nH]2)cc1` the value was 109 nM; for `CCCCCCOc1ccn([C@@H]2O[C@H](COP(=O)(O)OP(=O)(O)OP(=O)(O)O)[C@@H](O)[C@H]2O)c(=O)n1`, 489000 nM; for `CSc1ccn([C@@H]2O[C@H](COP(=O)(O)OP(=O)(O)OP(=O)(O)O)[C@@H](O)[C@H]2O)c(=O)n1`, 3100 nM. Same read-out and setting: for `COc1ccn([C@@H]2O[C@H](COP(=O)(O)OP(=O)(O)OP(=O)(O)O)[C@@H](O)[C@H]2O)c(=O)n1` the value was 15500 nM. On to `CNc1ncnc2c1ncn2[C@@H]1C[C@H](COP(=O)(O)O)[C@@H](OP(=O)(O)O)C1`, for which half-maximal inhibition against P2Y purinoceptor 1 (IC50) required 148 nM. In the case of `CCCCCCNc1ccn([C@@H]2O[C@H](COP(=O)(O)OP(=O)(O)OP(=O)(O)O)[C@@H](O)[C@H]2O)c(=O)n1`, at P2Y purinoceptor 2 [1], the EC50 was found to be 26300 nM. The same measure, in the same setting: for `CN(C)c1ccn([C@@H]2O[C@H](COP(=O)(O)OP(=O)(O)OP(=O)(O)O)[C@@H](O)[C@H]2O)c(=O)n1` the value was 29800 nM; for `CCCCCCSc1ccn([C@@H]2O[C@H](COP(=O)(O)OP(=O)(O)OP(=O)(O)O)[C@@H](O)[C@H]2O)c(=O)n1`, 840 nM. Consider `Nc1ncnc2c1ncn2[C@@H]1O[C@H](COP(=O)(O)OP(=O)(O)OP(=O)(O)O)[C@@H](O)[C@H]1O` [ADENOSINE TRIPHOSPHATE], for which the EC50 at P2Y purinoceptor 2 [3] was 200 nM; on P2Y purinoceptor 2 [4], 200 nM; at P2Y purinoceptor 2 [5], 180 nM.

On to `Nc1ccn([C@@H]2O[C@H](COP(=O)(O)OP(=O)(O)OP(=O)(O)O)[C@@H](O)[C@H]2O)c(=O)n1` [CYSTETINE TRIPHOSPHATE], for which the EC50 on P2Y purinoceptor 2 [1] is 37800 nM. As to `O=c1ccn([C@@H]2O[C@H](COP(=O)(O)OP(=O)(O)OP(=O)(O)O)[C@@H](O)[C@H]2O)c(=O)[nH]1` [URIDINE TRIPHOSPHATE], the values for the EC50 at P2Y purinoceptor 2 [1], at P2Y purinoceptor 2 [3] and at P2Y purinoceptor 2 [5] were 120 nM, 160 nM and 1250 nM, respectively.
